Consider nine compounds from patent EP4737473A1, “NOVEL COMPLEMENT INHIBITOR AND PREPARATION, USE AND PRODUCT THEREOF” (Liu, Xiaorong, priority 2023, dated 2025).

Positions of bridges follow the written chain, without caps; N, C: chain ends. Non-standard residues stand in square brackets, D forms with d. Residues, ends and D or L forms follow the SMILES beside them. ξ: configuration not given here. Bpa = N[C@@H](Cc1ccc(C(=O)c2ccccc2)cc1)C(=O)O; Trp(7-aza) = N[C@@H](Cc1c[nH]c2ncccc12)C(=O)O; Trp(1-Me) = Cn1cc(C[C@H](N)C(=O)O)c2ccccc21; ξTrp(5-F) = NC(Cc1c[nH]c2ccc(F)cc12)C(=O)O; 2Nal = N[C@@H](Cc1ccc2ccccc2c1)C(=O)O; Api = NC1(C(=O)O)CCNCC1; Abu = CC[C@H](N)C(=O)O; Aib = CC(C)(N)C(=O)O

Experiment [1] deals with T1, His-tag recombinant human C3 protein (Homo sapiens, UniProt P01024). Kind of experiment: BLI affinity assay (Bio-Layer Interferometry, Ni-NTA biosensor, ForteBio Octet). The arrangement: purchased Sino Biological Inc. Type of experiment: binding. The following applies: for Kd: 60s association, 90s dissociation, PBS pH 8.0; for kon: association rate constant; for koff: dissociation rate constant, read-out: kdis. The text has this:
The BLI affinity assay was used to verify the effects of the cyclic peptides of the disclosure and the control product.
BLI refers to Bio-Layer Interferometry. The principle is: after visible light is emitted from the spectrometer, two reflected spectra are formed at the two interfaces of the optical film layer at the end of the sensor, and an interference spectrum is formed. Any change in film thickness caused by molecular binding can be reflected by the displacement value of the interference spectrum.
Subsequently, a 90s dissociation step was performed after the 60s association phase to obtain the Kd value by fitting the curve.
The stock solution was dissolved in 15% acetonitrile, and the working solution was serially diluted with PBS at pH 8.0.

For experiment [2], the system named is classical pathway complement. Description: Classical pathway complement inhibition assay (ELISA, human plasma). Type of experiment: biochemical. Conditions: human plasma 1:40 in VBS, 15 minutes at room temperature. As to the method:
The half-inhibitory concentration values of SEQ ID NO.1-6 were evaluated by the classical pathway complement inhibition assay. The association constant (Ka), dissociation constant (Kd), and equilibrium dissociation constant (KD) were determined by surface plasmon resonance (SPR) assay.
The complement inhibition assay can be performed with reference to the following steps: Evaluation was performed by an established enzyme-linked immunosorbent assay (ELISA). Under normal ambient temperature, 96-well plates were coated with 50 µL of 1% ovalbumin in PBS for 2 hours. […] After washing, complement activation (C3b/iC3b/C3d bound to immune complexes) was detected using HRP-conjugated goat α-human C3 antibody (1:1000; MP Biomedicals). The reaction was performed using HRP substrate (0.05% ABTS and 0.1% H2O2 dissolved in 0.1 M sodium citrate, pH 4.2), and the absorbance was read at 405 nm using a VICTOR multi-label plate reader (PerkinElmer, Waltham, MA). 100% complement activation was obtained in the absence of the C3 peptide inhibitor, and the absorbance data obtained at 405 nm were converted to the percentage of complement inhibition. […] Surface plasmon resonance (SPR) experiments were performed using a Biacore 3000 instrument (GE Healthcare, Piscataway Town, NJ), and the binding affinity and kinetic characteristics of the cyclic peptides were evaluated by SPR.
A general note: In an ELISA, binding on a coated surface is turned into a signal by an enzyme label.

Another experiment addresses C3 protein (Homo sapiens, UniProt P01024). Description: MST affinity assay (microscale thermophoresis, Monolith NT.115). Conditions: polypeptide about 200 nM, 0.5×PBS, 15% ACN, maximum protein concentration 0.25 µM. It counts as binding. (In general: Microscale thermophoresis detects binding through changes in fluorescence in a small temperature gradient.)
Experiment [3] deals with T1, His-tag recombinant human C3 protein. Kind of experiment: BLI (ForteBio Octet), His-tag C3 on Ni-NTA biosensor, peptide in solution. A general note: In BLI a coated tip is dipped into the sample, and binding shifts an interference pattern.
Target sequence in this assay (P01024 23-1663 limits assumed): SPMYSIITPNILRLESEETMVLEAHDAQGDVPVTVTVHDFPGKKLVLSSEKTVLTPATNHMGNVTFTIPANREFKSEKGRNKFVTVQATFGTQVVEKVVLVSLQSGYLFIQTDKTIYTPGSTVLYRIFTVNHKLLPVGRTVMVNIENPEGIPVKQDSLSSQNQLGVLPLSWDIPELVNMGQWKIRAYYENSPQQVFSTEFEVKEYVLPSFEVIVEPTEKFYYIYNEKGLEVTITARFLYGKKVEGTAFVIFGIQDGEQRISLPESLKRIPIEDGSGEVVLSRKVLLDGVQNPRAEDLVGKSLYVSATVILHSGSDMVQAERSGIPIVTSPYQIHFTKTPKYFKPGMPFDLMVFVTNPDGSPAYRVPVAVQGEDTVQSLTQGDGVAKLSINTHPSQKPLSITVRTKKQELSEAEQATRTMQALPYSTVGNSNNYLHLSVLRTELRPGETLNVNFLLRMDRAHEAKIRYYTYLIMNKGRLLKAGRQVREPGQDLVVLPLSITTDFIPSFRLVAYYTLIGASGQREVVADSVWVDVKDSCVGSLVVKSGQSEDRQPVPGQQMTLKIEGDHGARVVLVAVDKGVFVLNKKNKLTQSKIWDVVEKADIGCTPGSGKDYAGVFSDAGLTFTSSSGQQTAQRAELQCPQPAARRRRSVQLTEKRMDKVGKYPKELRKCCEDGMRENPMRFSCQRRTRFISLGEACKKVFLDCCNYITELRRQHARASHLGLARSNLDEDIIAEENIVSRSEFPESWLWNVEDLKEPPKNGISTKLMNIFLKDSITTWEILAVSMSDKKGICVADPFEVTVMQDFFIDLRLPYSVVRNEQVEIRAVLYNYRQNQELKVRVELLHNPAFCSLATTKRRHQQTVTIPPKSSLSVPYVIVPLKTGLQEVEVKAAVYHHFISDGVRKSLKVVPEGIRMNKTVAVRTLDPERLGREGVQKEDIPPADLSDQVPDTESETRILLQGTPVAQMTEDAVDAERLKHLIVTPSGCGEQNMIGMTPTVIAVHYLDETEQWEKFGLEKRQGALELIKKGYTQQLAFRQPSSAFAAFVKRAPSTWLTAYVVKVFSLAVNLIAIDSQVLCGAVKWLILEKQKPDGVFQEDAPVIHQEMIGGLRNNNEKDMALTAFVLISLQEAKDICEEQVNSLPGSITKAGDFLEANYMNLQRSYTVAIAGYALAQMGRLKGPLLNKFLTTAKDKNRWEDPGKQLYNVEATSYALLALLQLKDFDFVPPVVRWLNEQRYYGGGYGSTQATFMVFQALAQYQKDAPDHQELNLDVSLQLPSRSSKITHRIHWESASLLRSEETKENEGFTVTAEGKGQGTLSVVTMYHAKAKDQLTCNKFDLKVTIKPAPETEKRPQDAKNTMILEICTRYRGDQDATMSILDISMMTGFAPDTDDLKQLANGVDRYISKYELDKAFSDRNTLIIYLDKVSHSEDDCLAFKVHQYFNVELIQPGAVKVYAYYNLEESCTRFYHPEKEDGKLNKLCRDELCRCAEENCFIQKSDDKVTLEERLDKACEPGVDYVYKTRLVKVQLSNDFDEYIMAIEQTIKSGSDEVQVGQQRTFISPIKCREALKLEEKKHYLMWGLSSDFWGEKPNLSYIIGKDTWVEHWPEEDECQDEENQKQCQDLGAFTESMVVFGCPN
Experiment [4] concerns the target C3 protein (MST affinity assay) (Homo sapiens (Human)) (UniProt P01024). Kind of experiment: MST (Monolith NT.115), retest; fluorescently labeled peptide, C3 protein titrated.
Experiment [5] deals with C3 in human plasma (human) (UniProt P01024). Description: cell-based or functional assay.
C3 in human plasma (human), sequence (P01024 23-1663): as the sequence (P01024 23-1663 limits assumed) above
For experiment [6], the target named is C3 protein (MST affinity assay) (Homo sapiens (Human)) (UniProt P01024). Description: MST (Monolith NT.115), fluorescently labeled peptide ~200 nM, C3 protein titrated from 0.25 uM.
C3 protein (MST affinity assay) (Homo sapiens (Human)), sequence (P01024 23-667 limits assumed, form in doubt, chain 1 of 2): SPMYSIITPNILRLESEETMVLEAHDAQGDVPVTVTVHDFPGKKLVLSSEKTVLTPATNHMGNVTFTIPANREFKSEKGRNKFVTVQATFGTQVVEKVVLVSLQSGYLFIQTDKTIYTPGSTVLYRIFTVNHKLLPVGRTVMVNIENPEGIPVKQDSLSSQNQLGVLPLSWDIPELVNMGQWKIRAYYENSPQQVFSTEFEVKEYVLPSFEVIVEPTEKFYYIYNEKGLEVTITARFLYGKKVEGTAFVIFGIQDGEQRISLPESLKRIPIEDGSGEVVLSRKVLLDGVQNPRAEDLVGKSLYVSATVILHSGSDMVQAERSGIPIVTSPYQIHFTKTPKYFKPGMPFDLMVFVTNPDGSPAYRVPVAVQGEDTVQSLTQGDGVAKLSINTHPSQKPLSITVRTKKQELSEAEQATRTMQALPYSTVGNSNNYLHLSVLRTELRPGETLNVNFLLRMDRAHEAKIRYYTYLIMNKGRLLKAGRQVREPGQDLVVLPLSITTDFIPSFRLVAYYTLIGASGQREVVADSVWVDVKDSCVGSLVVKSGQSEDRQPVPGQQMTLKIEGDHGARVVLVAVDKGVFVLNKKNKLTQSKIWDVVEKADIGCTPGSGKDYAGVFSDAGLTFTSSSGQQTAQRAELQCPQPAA
C3 protein (MST affinity assay) (Homo sapiens (Human)), sequence (P01024 672-1663 limits assumed, form in doubt, chain 2 of 2): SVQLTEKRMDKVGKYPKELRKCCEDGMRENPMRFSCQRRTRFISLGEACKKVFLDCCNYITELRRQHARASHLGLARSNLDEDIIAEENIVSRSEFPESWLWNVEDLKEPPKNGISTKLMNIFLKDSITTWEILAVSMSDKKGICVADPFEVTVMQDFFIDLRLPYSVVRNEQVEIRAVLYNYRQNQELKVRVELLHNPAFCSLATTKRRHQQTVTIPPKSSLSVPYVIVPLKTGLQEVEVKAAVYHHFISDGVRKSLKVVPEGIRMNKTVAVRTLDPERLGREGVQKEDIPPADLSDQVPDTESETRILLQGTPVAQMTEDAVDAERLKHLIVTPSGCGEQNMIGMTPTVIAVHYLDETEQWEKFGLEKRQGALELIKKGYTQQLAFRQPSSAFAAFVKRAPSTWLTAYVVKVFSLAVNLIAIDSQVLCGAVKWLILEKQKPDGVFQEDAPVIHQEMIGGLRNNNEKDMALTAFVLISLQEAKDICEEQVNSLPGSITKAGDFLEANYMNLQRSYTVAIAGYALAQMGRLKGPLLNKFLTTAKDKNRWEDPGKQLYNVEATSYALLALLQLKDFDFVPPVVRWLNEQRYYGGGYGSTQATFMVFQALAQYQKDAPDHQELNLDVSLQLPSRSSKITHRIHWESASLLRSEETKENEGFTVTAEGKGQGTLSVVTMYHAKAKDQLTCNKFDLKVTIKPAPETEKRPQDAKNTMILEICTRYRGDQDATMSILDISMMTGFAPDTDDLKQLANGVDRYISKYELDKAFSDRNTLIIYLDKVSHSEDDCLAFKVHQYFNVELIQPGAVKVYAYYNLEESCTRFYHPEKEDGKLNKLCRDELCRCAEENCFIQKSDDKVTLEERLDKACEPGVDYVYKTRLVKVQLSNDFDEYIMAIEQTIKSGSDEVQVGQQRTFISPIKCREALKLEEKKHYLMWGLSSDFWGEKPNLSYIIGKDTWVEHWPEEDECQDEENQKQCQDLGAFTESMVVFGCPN

By Kd is commonly meant the concentration at which binding is half-saturated. The term kon denotes a measure of how fast the partners come together. `CC[C@H](C)[C@H](NC(C)=O)C(=O)N[C@H]1CSSC[C@@H](C(=O)N[C@H](C(N)=O)[C@@H](C)O)NC(=O)[C@H](CCCNC(=N)N)NC(=O)[C@H](Cc2c[nH]cn2)NC(=O)C(C)(C)NC(=O)CNC(=O)[C@H](Cc2ccc3ccccc3c2)NC(=O)[C@H](CC(=O)O)NC(=O)[C@H](CCC(N)=O)NC(=O)[C@H](Cc2cn(C)c3ccccc23)NC(=O)[C@H](C(C)C)NC1=O` [SEQ ID NO.1, Ac-ICV-W(CH3)-QD-2Nal -G-Aib-HRCT-NH2(C-C)] (Ac-ICV[Trp(1-Me)]QD[2Nal]G[Aib]HRCT-NH2; disulfide 2-12): in experiment [1], the Kd came to 3.19 µM, the kon is 15400 M⁻¹ s⁻¹ and the koff came to 0.0492 s⁻¹.

The term IC50 denotes the midpoint of a concentration-inhibition curve. A high value points to weaker potency. In experiment [2], `CC[C@H](C)[C@H](NC(C)=O)C(=O)N[C@H]1CSSC[C@@H](C(=O)N[C@H](C(N)=O)[C@@H](C)O)NC(=O)[C@H](CCCNC(=N)N)NC(=O)[C@H](Cc2c[nH]cn2)NC(=O)C(C)(C)NC(=O)CNC(=O)C(Cc2c[nH]c3ccc(F)cc23)NC(=O)[C@H](CC(=O)O)NC(=O)[C@H](CCC(N)=O)NC(=O)[C@H](Cc2c[nH]c3ncccc23)NC(=O)[C@H](C(C)C)NC1=O` (some centres unmarked) [SEQ ID NO.2, Ac-ICV-AzaTrp-QD-5F-Trp-G-Aib-HRCT-NH2(C-C)] (Ac-ICV[Trp(7-aza)]QD[ξTrp(5-F)]G[Aib]HRCT-NH2; disulfide 2-12) gave an IC50 of 0.92 µM. Also, in experiment [1], the kon worked out at 393000 M⁻¹ s⁻¹ and the koff worked out at 0.0179 s⁻¹.

Turning to `CC[C@H](C)[C@H](NC(C)=O)C(=O)N[C@H]1CSSC[C@@H](C(=O)N[C@H](C(N)=O)[C@@H](C)O)NC(=O)[C@H](CCCNC(=N)N)NC(=O)[C@H](Cc2c[nH]cn2)NC(=O)C(C)(C)NC(=O)CNC(=O)C(Cc2c[nH]c3ccc(F)cc23)NC(=O)[C@H](CC(=O)O)NC(=O)[C@H](CCC(N)=O)NC(=O)[C@H](Cc2ccc3ccccc3c2)NC(=O)[C@H](C(C)C)NC1=O` (some centres unmarked) [SEQ ID NO.3, Ac-ICV-2Nal-QD-5F-Trp-G-Aib-HRCT-NH2(C-C)] (Ac-ICV[2Nal]QD[ξTrp(5-F)]G[Aib]HRCT-NH2; disulfide 2-12), in experiment [1], the Kd is 0.0454 µM, the kon was determined as 387000 M⁻¹ s⁻¹ and the koff is 0.0176 s⁻¹. Moreover, the Kd on C3 protein turned out to be 0.0354 µM.

`CC[C@@H]1NC(=O)[C@@H](NC(=O)[C@@H](NC(C)=O)[C@@H](C)CC)CSSC[C@@H](C(=O)N[C@H](C(N)=O)[C@@H](C)O)NC(=O)[C@H](CCCNC(=N)N)NC(=O)[C@H](Cc2c[nH]cn2)NC(=O)C2(CCNCC2)NC(=O)CNC(=O)C(Cc2c[nH]c3ccc(F)cc23)NC(=O)[C@H](CC(=O)O)NC(=O)[C@H](CCC(N)=O)NC(=O)[C@H](Cc2cn(C)c3ccccc23)NC1=O` (some centres unmarked) [SEQ ID NO.4, Ac-IC-Abu-W(CH3)-QD-5F-Trp -G-Pip-HRCT-NH2(C-C)] (Ac-IC[Abu][Trp(1-Me)]QD[ξTrp(5-F)]G[Api]HRCT-NH2; disulfide 2-12) gave an IC50 in experiment [2] of 2.26 µM. For the same compound, in experiment [1], the kon stood at 112000 M⁻¹ s⁻¹ and the koff is 0.0393 s⁻¹.

As to `CC[C@@H]1NC(=O)[C@@H](NC(=O)[C@@H](NC(C)=O)[C@@H](C)CC)CSSC[C@@H](C(=O)N[C@H](C(N)=O)[C@@H](C)O)NC(=O)[C@H](CCCNC(=N)N)NC(=O)[C@H](Cc2c[nH]cn2)NC(=O)C(C)(C)NC(=O)CNC(=O)C(Cc2c[nH]c3ccc(F)cc23)NC(=O)[C@H](CC(=O)O)NC(=O)[C@H](CCC(N)=O)NC(=O)[C@H](Cc2ccc3ccccc3c2)NC1=O` (some centres unmarked) [SEQ ID NO.5, Ac-IC-Abu- 2Nal -QD-5F-Trp -G-Aib-HRCT-NH2(C-C)] (Ac-IC[Abu][2Nal]QD[ξTrp(5-F)]G[Aib]HRCT-NH2; disulfide 2-12), in experiment [1], the Kd amounted to 2.26 µM, the kon stood at 13100 M⁻¹ s⁻¹ and the koff is 0.0296 s⁻¹.

In the case of `CC[C@H](C)[C@H](NC(C)=O)C(=O)N[C@H]1CSSC[C@@H](C(=O)N[C@H](C(N)=O)[C@@H](C)O)NC(=O)[C@H](CCCNC(=N)N)NC(=O)[C@H](Cc2c[nH]cn2)NC(=O)C(C)(C)NC(=O)CNC(=O)C(Cc2c[nH]c3ccc(F)cc23)NC(=O)[C@H](CC(=O)O)NC(=O)[C@H](CCC(N)=O)NC(=O)[C@H](Cc2ccc(C(=O)c3ccccc3)cc2)NC(=O)[C@H](Cc2ccc(O)cc2)NC1=O` (stereo partly drawn) [SEQ ID NO.6, Ac-IC-Tyr-Bpa-QD-5F-Trp -G-Aib-HRCT-NH2(C-C)] (Ac-ICY[Bpa]QD[ξTrp(5-F)]G[Aib]HRCT-NH2; disulfide 2-12), in experiment [1], the Kd is 39.9 µM, the kon stood at 925 M⁻¹ s⁻¹ and the koff is 0.0369 s⁻¹.

In the case of “SEQ ID NO.2: Ac-ICV-AzaTrp-QD-5F-Trp-G-Aib-HRCT-NH2 (C-C) (peptide)”, the values for the Kd in experiment [3], in experiment [4] and in experiment [6] were 0.0454 µM, 0.0246 µM and 0.114 µM, respectively. Besides, the IC50 (µm), classical pathway complement inhibition assay (ELISA, C3b/iC3b/C3d deposition from human plasma) in experiment [5] was found to be 0.92 µM.

As for “SEQ ID NO.3: Ac-ICV-2Nal-QD-5F-Trp-G-Aib-HRCT-NH2 (C-C) (peptide)”, the IC50 (µm), classical pathway complement inhibition assay (ELISA, C3b/iC3b/C3d deposition from human plasma) in experiment [5] turned out to be 1.46 µM.

Consider “SEQ ID NO.4: Ac-IC-Abu-W(CH3)-QD-5F-Trp-G-Pip-HRCT-NH2 (C-C) (peptide)”, for which the Kd in experiment [3] amounted to 0.351 µM. In addition, the IC50 (µm), classical pathway complement inhibition assay (ELISA, C3b/iC3b/C3d deposition from human plasma) in experiment [5] is 2.26 µM.
